Data taken from paper PMC6030077, “Dual role of HDAC10 in lysosomal exocytosis and DNA repair promotes neuroblastoma chemoresistance” (Scientific Reports, 2018).

Assays:
Format in all cases: cell-based, human
[1] = system: HDAC6; experiment: Western blot analysis of tubulin K40 acetylation as a marker for HDAC6 inhibition; settings: 24 h; bufexamac 30 µM, tubastatin A 7.5 µM, tubacin 7.5 µM
Experimental: Western blot analysis was performed as previously described. The following antibodies were used: anti-HDAC6 (sc-11420, Santa Cruz), anti-HDAC10 (H3413, Sigma), anti-acetylated histone H3 (06-911, Merck Millipore), anti-histone H3 (9715, Cell Signaling Technology, Cambridge UK), anti-LAMP-1 (H4A3, DHSB, Iowa City, IA, USA), anti-LAMP-2 (H4B4; Santa Cruz Biotechnology), anti-acetylated tubulin (6–11B-1; Sigma), anti-tubulin (2148, Cell Signaling Technology), anti P-glycoprotein (13978 S, Cell Signaling Technology) and anti-β-actin (clone AC-15; Sigma).

[2] = system: BE(2)-C cells; experiment: Confocal fluorescence microscopy of doxorubicin-loaded damaged nuclei; settings: 250 ng/ml doxorubicin + 7.5 µM tubastatin A, 24 h
Experimental: BE(2)-C cells were seeded at a density of 2 ∗ 10^4 cells per well into an ibidi 8-well µ-slide one day before treatment. For analysis of doxorubicin uptake, cells were treated with 250 ng/ml doxorubicin +/− HDAC6/10 or lysosomal inhibitors for 24 h. The next day, cells were washed in PBS, fixed for 20 minutes using 4% PFA at room temperature, washed twice with PBS and counterstained with DAPI (4′,6-Diamidino-2-phenylindole). In case of LysoTracker® Red staining, cells were treated for 24 h with HDAC6/10 inhibitors. One hour before fixation, LysoTracker® Red was added at a final concentration of 50 nM and cells were stained for 1 h under standard cell culture conditions. Cells were washed as described, fixed for 15 minutes using 4% PFA at room temperature and counterstained as described above. […] Cells were fixed for 15 minutes using 4% PFA, permeabilized for 30 minutes with 0.2% Triton X-100 and blocked in 0.05% Triton X-100 and 3% BSA in PBS for 1 h at room temperature. Cells were stained with Phospho-Histone H2A.X (S139) primary antibody (CST #9718) over night (4 °C) and for 2 h with Alexa-488-labeled secondary antibody (ThermoFisher A-11008) at room temperature. Nuclei were counterstained with DAPI. Images were acquired on a Zeiss LSM710 (Oberkochen, Germany) laser scanning confocal microscope using the 40× objective.

[3] = system: P-glycoprotein; experiment: Flow cytometric quantification of cell surface P-gp expression; settings: BE(2)-C; 6 h tubastatin A 7.5 µM; vacuolin-1 10 µM 1 h
Experimental: Cells were dissociated from dishes using non-enzymatic cell dissociation reagent for five minutes. Cells were counted using a ViCell XR automatic cell counter (Beckmann Coulter) and 2.5 ∗ 10^5 cells were transferred into a pre-cooled 96-well round bottom plate (TPP92097). Cells were stained for 1.5–2 hours on ice with primary anti P-gp (Biozol ABA-AB00143-1.1), LAMP-1 (H4A3, DHSB) antibody or isotype control (DLN-05794, Dianova, […]) and for 1 hour with APC-labeled secondary antibody (Dianova 115-136-068). Cells were washed three times in FACS buffer (5% FBS in PBS) after each antibody incubation step. For evaluation of DNA double-strand breaks, cells were detached from dishes using trypsin, counted using a ViCell XR automatic cell counter (Beckmann Coulter) and transferred into a pre-cooled 96-well round bottom plate (4 ∗ 10^6 cells/well). Cells were fixed and permeabilized using the eBioscience^TM Foxp3/Transcription Factor Staining Buffer Set (Thermo Fisher Scientific). Cells were stained for 1.5 h with Phospho-Histone H2A.X (S139) primary antibody (CST #9718) and for 1 h in Alexa-488-labeled secondary antibody (ThermoFisher A-11008). Cells were washed three times in 1× permeabilization buffer after each antibody incubation step and fluorescence was quantified on a BD FACSCanto II platform.

CN1CCc2c(c3ccccc3n2Cc2ccc(C(=O)NO)cc2)C1 [tubastatin A]
HDAC6 inhibition (tubulin K40 acetylation) [1]: substantially inhibited HDAC6 | dying cells with highly condensed chromatin, combination with doxorubicin compared to doxorubicin alone [2]: increased the number of dying cells | cell surface P-gp levels [3]: slightly increased surface P-gp levels
